According to paper PMC8801607, “New Chitosan Polymer Scaffold Schiff Bases as Potential Cytotoxic Activity: Synthesis, Molecular Docking, and Physiochemical Characterization” (Frontiers in Chemistry, 2022):

Tested on: MCF-7 cancer cell line
Test: cells
Method: MCF-7 breast cell line was employed in this study. The MCF-7 cell line was pre-incubated on a micro titer plate in this technique. Each test’s results are expressed as a percentage of the treated cells’ growth relative to the untreated control cells. […] 0.1 ml of the cell suspension (containing 5 × 10^6 cells/100 µL)and 0.1 ml of the test solution (6.25–100 µg in 1% DMSO such that the final concentration of DMSO in media was less than 1%) were added to the […] and incubated at 37°C for 72 h in a 5 percent CO2 incubator. The control wells included 1 percent DMSO and cell suspension, while the blank contained simply cell suspension. After 72 h, 20 µL of MTT were added and left in the CO2 incubator for 2 h before adding 100 µL of propanol. To protect the plate from light, it was wrapped in aluminum foil. The […] were then shaken for 10–25 min in a rotary shaker. The […] were processed on an ELISA reader for absorbance at 562 nm after 10–20 min.

COc1cccc2c1C(=O)c1c(O)c3c(c(O)c1C2=O)C[C@@](O)(C(=O)CO)C[C@@H]3O[C@H]1C[C@H](N)[C@H](O)[C@H](C)O1 [Doxorubicin]
GI50 (Homo sapiens, MCF7): 40 nM
TGI (total growth of inhibition) (MCF-7 cell line, MTT assay, mean ± SD of three separate experiments): 250 ± 230 nM
